Several values for one entry are separate records, joined by “and”; a condition that tells them apart may be missing. Equal entries are not always repeated. Inconclusive results and toxic doses are left out. How the source made its calls: active means survival T/C of 150% or more; inactive means T/C below 125% in these data.
System: CD2F1 mice, L1210 leukemia ip, survival T/C
Experiment: NCI In Vivo Anticancer Drug Screen. Data for tumor model L1210 Leukemia (intraperitoneal) in CD2F1 (CDF1) mice
Conditions: higher = longer survival
Method in brief: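 Mice carrying a transplanted tumor received test compound or vehicle alone. The value is the measurement in the treated group divided by that in the vehicle-treated control group.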

[1] = endpoint: mean survival time, dose: 12.5 mg/kg/injection, schedule: Q01DX009 (ip), vehicle: saline
[2] = endpoint: mean survival time, dose: 25.0 mg/kg/injection, schedule: Q01DX009 (ip), vehicle: saline
[3] = endpoint: mean survival time, dose: 50.0 mg/kg/injection, schedule: Q01DX009 (ip), vehicle: saline
[4] = endpoint: mean survival time, dose: 100.0 mg/kg/injection, schedule: Q01DX009 (ip), vehicle: saline with Tween-80
[5] = endpoint: mean survival time, dose: 200.0 mg/kg/injection, schedule: Q01DX009 (ip), vehicle: saline with Tween-80
[6] = endpoint: mean survival time, dose: 400.0 mg/kg/injection, schedule: Q01DX009 (ip), vehicle: saline with Tween-80
[7] = endpoint: mean survival time, dose: 100.0 mg/kg/injection, schedule: Q01DX001 (ip), vehicle: saline with Tween-80
[8] = endpoint: mean survival time, dose: 200.0 mg/kg/injection, schedule: Q01DX001 (ip), vehicle: saline with Tween-80
[9] = endpoint: mean survival time, dose: 400.0 mg/kg/injection, schedule: Q01DX001 (ip), vehicle: saline with Tween-80
[10] = endpoint: mean survival time, dose: 100.0 mg/kg/injection, schedule: Q04DX003 (ip), vehicle: saline with Tween-80
[11] = endpoint: mean survival time, dose: 200.0 mg/kg/injection, schedule: Q04DX003 (ip), vehicle: saline with Tween-80
[12] = endpoint: mean survival time, dose: 400.0 mg/kg/injection, schedule: Q04DX003 (ip), vehicle: saline with Tween-80
[13] = endpoint: mean survival time, dose: 25.0 mg/kg/injection, schedule: Q04DX002 (ip), vehicle: saline with Tween-80
[14] = endpoint: mean survival time, dose: 50.0 mg/kg/injection, schedule: Q04DX002 (ip), vehicle: saline with Tween-80
[15] = endpoint: mean survival time, dose: 100.0 mg/kg/injection, schedule: Q04DX002 (ip), vehicle: saline with Tween-80
[16] = endpoint: mean survival time, dose: 50.0 mg/kg/injection, schedule: Q01DX009 (ip), vehicle: saline with Tween-80

Measured: T/C

COc1ccc2[nH]c(=O)c3c(c2c1)CCC(OC(=O)c1ccccc1)C3 (centres undefined)
inactive: [1] 104 % of control | endpoint: mean survival time, dose: 18.8 mg/kg/injection, schedule: Q04DX003 (ip), vehicle: saline 104 % of control | [2] 97 % of control | endpoint: mean survival time, dose: 37.5 mg/kg/injection, schedule: Q04DX003 (ip), vehicle: saline 101 % of control | [3] 98 % of control | endpoint: mean survival time, dose: 75.0 mg/kg/injection, schedule: Q04DX003 (ip), vehicle: saline 97 % of control

CCCCCCCCCCCCCC(CCCCCCCC)CCCCCCCC
inactive: endpoint: mean survival time, dose: 100.0 mg/kg/injection, schedule: Q01DX001 (ip), vehicle: saline sonified 111 % of control | endpoint: mean survival time, dose: 200.0 mg/kg/injection, schedule: Q01DX001 (ip), vehicle: saline sonified 104 % of control | endpoint: mean survival time, dose: 400.0 mg/kg/injection, schedule: Q01DX001 (ip), vehicle: saline sonified 101 % of control

COC(=O)C(NC(=O)OCc1ccccc1)C(=O)OC
inactive: [4] 105 % of control | [5] 107 % of control | [6] 112 % of control

CCCCCCC/C=N/NC(=O)c1ccc[n+](C)c1
inactive: [7] 97 % of control | [8] 97 % of control

N#Cc1c2ccccc2nn1C1OC(CO)C(O)C1O (centres undefined)
inactive: endpoint: mean survival time, dose: 100.0 mg/kg/injection, schedule: Q01DX005 (ip), vehicle: saline 109 % of control | endpoint: mean survival time, dose: 200.0 mg/kg/injection, schedule: Q01DX005 (ip), vehicle: saline 98 % of control

CCOC(=O)c1cnc(SC)nc1NCc1ccc(Cl)cc1
inactive: [7] 98 % of control | [4] 100 % of control | [8] 102 % of control | [5] 103 % of control | [9] 94 % of control | [6] 97 % of control

CN(C)C=Nc1c(Cl)cccc1Cl
inactive: endpoint: mean survival time, dose: 50.0 mg/kg/injection, schedule: Q01DX001 (ip), vehicle: saline 100 % of control | endpoint: mean survival time, dose: 100.0 mg/kg/injection, schedule: Q01DX001 (ip), vehicle: saline 103 % of control | endpoint: mean survival time, dose: 200.0 mg/kg/injection, schedule: Q01DX001 (ip), vehicle: saline 97 % of control | endpoint: mean survival time, dose: 400.0 mg/kg/injection, schedule: Q01DX001 (ip), vehicle: saline 106 % of control

CCOC(=O)N1C2CC(C3C2N3S(=O)(=O)c2ccccc2)N1C(=O)OCC (centres undefined)
inactive: [10] 104 % of control | [11] 103 % of control | [12] 90 % of control

O=c1cc(NCCCOc2ccccc2)[nH]c(=O)[nH]1
inactive: [7] 98 % of control | [8] 98 % of control | [9] 98 % of control

O=C1/C(=C/c2ccccc2)C=C(c2ccccc2)N1Cc1ccccc1
inactive: [13] 103 % of control | [14] 100 % of control | [15] 100 % of control

CCn1c(=N)sc2ccc(C(=O)OC)cc21
inactive: endpoint: mean survival time, dose: 12.5 mg/kg/injection, schedule: Q04DX002 (ip), vehicle: saline with Tween-80 101 % of control | [13] 96 % of control | [14] 90 % of control | [11] 88 % of control

CCCCCCCCCCNC(=O)C[n+]1cccc(C(=O)NCc2ccccc2)c1
inactive: endpoint: mean survival time, dose: 12.5 mg/kg/injection, schedule: Q01DX009 (ip), vehicle: saline sonified 90 % of control | endpoint: mean survival time, dose: 12.5 mg/kg/injection, schedule: Q04DX003 (ip), vehicle: saline sonified 104 % of control | endpoint: mean survival time, dose: 25.0 mg/kg/injection, schedule: Q04DX003 (ip), vehicle: saline sonified 104 % of control | endpoint: mean survival time, dose: 50.0 mg/kg/injection, schedule: Q04DX003 (ip), vehicle: saline sonified 101 % of control

COc1cc2c(cc1O)CCCC=C2
inactive: [16] 100 % of control | [4] 96 % of control | [5] 92 % of control

OC1(c2ccccc2)CCN(C/C=C/c2ccc(Cl)cc2)CC1
inactive: endpoint: median survival time, dose: 25.0 mg/kg/injection, schedule: Q04DX003 (ip), vehicle: saline with Tween-80 100 % of control | endpoint: median survival time, dose: 50.0 mg/kg/injection, schedule: Q04DX003 (ip), vehicle: saline with Tween-80 90 % of control

CC12CCC3C(CCC4CCCCC43C)C1CC/C2=N\O (centres undefined)
inactive: endpoint: mean survival time, dose: 100.0 mg/kg/injection, schedule: Q04DX003 (sc), vehicle: steriod suspending solution 96 % of control | endpoint: mean survival time, dose: 200.0 mg/kg/injection, schedule: Q04DX003 (sc), vehicle: steriod suspending solution 104 % of control | endpoint: mean survival time, dose: 400.0 mg/kg/injection, schedule: Q04DX003 (sc), vehicle: steriod suspending solution 89 % of control

Cn1c2cc(Cl)c(Cl)cc2nc2cc3c(cc21)c(Cl)c(=O)c1cc2cc(Cl)c(Cl)cc2cc13
inactive: endpoint: mean survival time, dose: 100.0 mg/kg/injection, schedule: Q04DX003 (ip), vehicle: saline 95 % of control | endpoint: mean survival time, dose: 200.0 mg/kg/injection, schedule: Q04DX003 (ip), vehicle: saline 95 % of control | endpoint: mean survival time, dose: 400.0 mg/kg/injection, schedule: Q04DX003 (ip), vehicle: saline 100 % of control

COC(=O)CCC1CCCC(CCC(=O)OC)C1=O (centres undefined)
inactive: endpoint: mean survival time, dose: 100.0 mg/kg/injection, schedule: Q04DX003 (ip), vehicle: Klucel (hydroxypropylcellulose) (HPC) 87 % of control | endpoint: mean survival time, dose: 200.0 mg/kg/injection, schedule: Q04DX003 (ip), vehicle: Klucel (hydroxypropylcellulose) (HPC) 94 % of control | endpoint: mean survival time, dose: 400.0 mg/kg/injection, schedule: Q04DX003 (ip), vehicle: Klucel (hydroxypropylcellulose) (HPC) 92 % of control

O=C(O)c1c2c(nc3ccccc13)-c1cccc3c1N(CCC3)C2
inactive: endpoint: mean survival time, dose: 6.25 mg/kg/injection, schedule: Q01DX009 (ip), vehicle: other 100 % of control | endpoint: mean survival time, dose: 12.5 mg/kg/injection, schedule: Q01DX009 (ip), vehicle: other 103 % of control | endpoint: mean survival time, dose: 25.0 mg/kg/injection, schedule: Q01DX009 (ip), vehicle: other 103 % of control | endpoint: mean survival time, dose: 50.0 mg/kg/injection, schedule: Q01DX009 (ip), vehicle: other 100 % of control | endpoint: mean survival time, dose: 100.0 mg/kg/injection, schedule: Q01DX001 (ip), vehicle: other 100 % of control | endpoint: mean survival time, dose: 200.0 mg/kg/injection, schedule: Q01DX001 (ip), vehicle: other 97 % of control | endpoint: mean survival time, dose: 400.0 mg/kg/injection, schedule: Q01DX001 (ip), vehicle: other 97 % of control

CC1(C)OC2C(CO)OC(NC3=C(C#N)CCCC3)C2O1 (centres undefined)
inactive: endpoint: mean survival time, dose: 12.5 mg/kg/injection, schedule: Q01DX005 (ip), vehicle: other 103 % of control | endpoint: mean survival time, dose: 25.0 mg/kg/injection, schedule: Q01DX005 (ip), vehicle: other 105 % of control | endpoint: mean survival time, dose: 50.0 mg/kg/injection, schedule: Q01DX005 (ip), vehicle: other 103 % of control | endpoint: mean survival time, dose: 100.0 mg/kg/injection, schedule: Q01DX005 (ip), vehicle: other 97 % of control | endpoint: mean survival time, dose: 200.0 mg/kg/injection, schedule: Q01DX005 (ip), vehicle: other 103 % of control

OCC12COCN1COC2
inactive: [1] 98 % of control and 104 % of control | [2] 94 % of control and 96 % of control | [3] 101 % of control and 104 % of control | endpoint: mean survival time, dose: 100.0 mg/kg/injection, schedule: Q01DX009 (ip), vehicle: saline 98 % of control and 101 % of control | endpoint: mean survival time, dose: 200.0 mg/kg/injection, schedule: Q01DX009 (ip), vehicle: saline 96 % of control and 106 % of control | endpoint: mean survival time, dose: 400.0 mg/kg/injection, schedule: Q01DX009 (ip), vehicle: saline 109 % of control and 112 % of control

CCOC(=O)c1cnc(SCc2ccccc2)[nH]c1=O
inactive: [10] 107 % of control | [11] 110 % of control | [12] 102 % of control

O=C(OCc1ccccc1)C1CC1 (tested in a mixture with another compound)
inactive: endpoint: mean survival time, dose: 25.0 mg/kg/injection, schedule: Q01DX009 (ip), vehicle: saline with Tween-80 86 % of control | endpoint: mean survival time, dose: 50.0 mg/kg/injection, schedule: Q01DX005 (ip), vehicle: saline with Tween-80 101 % of control | [16] 96 % of control | endpoint: mean survival time, dose: 50.0 mg/kg/injection, schedule: Q04DX002 (ip), vehicle: saline 102 % of control | endpoint: mean survival time, dose: 100.0 mg/kg/injection, schedule: Q01DX005 (ip), vehicle: saline with Tween-80 93 % of control | [4] 86 % of control | endpoint: mean survival time, dose: 100.0 mg/kg/injection, schedule: Q04DX002 (ip), vehicle: saline 97 % of control | endpoint: mean survival time, dose: 200.0 mg/kg/injection, schedule: Q01DX005 (ip), vehicle: saline with Tween-80 97 % of control | [5] 86 % of control | endpoint: mean survival time, dose: 200.0 mg/kg/injection, schedule: Q04DX002 (ip), vehicle: saline 105 % of control | endpoint: mean survival time, dose: 400.0 mg/kg/injection, schedule: Q04DX002 (ip), vehicle: saline 97 % of control

O=C1CC(=O)C(CCc2cccc3ccccc23)C1=O (centres undefined)
inactive: [7] 86 % of control | [15] 100 % of control | [8] 94 % of control | endpoint: mean survival time, dose: 200.0 mg/kg/injection, schedule: Q04DX002 (ip), vehicle: saline with Tween-80 93 % of control | [9] 105 % of control

Reference: PubChem BioAssay AID256 (DTP/NCI, 2004)
